Assays:
[1] = system: Volatile Sulphur Compounds (VSCs); experiment: Levels of VSCs following treatment with delmopinol; format: in vivo
[2] = system: oral bacteria; conditions: delmopinol mouthwash; cited from earlier work

In the case of `CCCC(CCC)CCCC1COCCN1CCO` (centres unmarked) [delmopinol, 3-(4-propyl-heptyl)-4-(2-hydroxyethyl)morpholine], the “levels of VSCs” value [1] is listed as “decrease” and the “numbers or proportions of oral bacteria” value [2] is listed as “does not significantly affect”.

— patent publication US20180085374A1, “Use of Morpholino Compounds for the Treatment of Halitosis” (MERIAL INC., priority 2007, published 2018)
